Assay results as given in ChEMBL document CHEMBL3217580, “Structureactivity relationships of benzimidazole derivatives as antiparasitic agents: Dual activity-difference (DAD) maps” (Medchemcomm, 2011).

Columns and labels:
[1] = tested on: Giardia intestinalis; assay: Antimicrobial activity against Giardia intestinalis; assay type: functional, organism-based, Giardia duodenalis; settings: for IC50: Giardia duodenalis
[2] = tested on: Trichomonas vaginalis; assay: Antimicrobial activity against Trichomonas vaginalis; assay type: functional, organism-based
[3] = Trichomonas vaginalis, read-out: pIC50 (converted)
[4] = Trichomonas vaginalis, read-out: IC50

pIC50 [1] | IC50 ([1]; read-out: pIC50 (converted)) | pIC50 [2] | IC50 [2, 3] | IC50 [2, 4] | IC50 ([1]; read-out: IC50) | IC50 ([2]; read-out: IC50) | Compound
7.68 | 20.9 nM | – | – | – | – | – | CN(C)CCSc1nc2c(Cl)cc(Cl)cc2[nH]1
7.42 | 38 nM | 6.16 | 692 nM | – | – | – | OCCSc1nc2c(Cl)cc(Cl)cc2[nH]1
7.72 | 19.1 nM | 7.39 | 40.7 nM | – | – | – | CCN(CC)CCSc1nc2c(Cl)cc(Cl)cc2[nH]1
7.46 | 34.7 nM | 7.53 | 29.5 nM | 29 nM | – | – | CCN(CC)CCSc1nc2c(Br)cc(Br)cc2[nH]1
7.14 | 72.4 nM | 7.07 | 85.1 nM | 85 nM | 72 nM | – | CN(C)CCCSc1nc2c(Cl)cc(Cl)cc2[nH]1
7.41 | 38.9 nM | 7.29 | 51.3 nM | – | – | – | Clc1cc(Cl)c2nc(SCCN3CCOCC3)[nH]c2c1

Second part, the molecule before the results:

Compound | pIC50 [1] | IC50 ([1]; read-out: pIC50 (converted)) | pIC50 [2] | IC50 [2, 3] | IC50 [2, 4] | IC50 ([1]; read-out: IC50) | IC50 ([2]; read-out: IC50)
FC(F)(F)c1nc2cc(Br)ccc2[nH]1 | 6.19 | 646 nM | 5.8 | 1580 nM | – | – | –
FC(F)(F)c1nc2c(Br)cc(Br)cc2[nH]1 | 6.6 | 251 nM | 6.72 | 191 nM | – | – | –
CCCSc1ccc2[nH]c(C(F)(F)F)nc2c1 | 5.82 | 1510 nM | 6.46 | 347 nM | – | – | –
O=C(c1ccccc1)c1ccc2[nH]c(C(F)(F)F)nc2c1 | 5.64 | 2290 nM | 4.55 | 28200 nM | 28400 nM | 2310 nM | –
FC(F)(F)c1nc2c(Br)c(Br)c(Br)cc2[nH]1 | 6.85 | 141 nM | 6.57 | 269 nM | 270 nM | – | 270 nM
OCCSc1nc2c(Br)cc(Br)cc2[nH]1 | 6.98 | 105 nM | 6.83 | 148 nM | – | – | –
CN(C)CCSc1nc2c(Br)cc(Br)cc2[nH]1 | 7.54 | 28.8 nM | 6.51 | 309 nM | – | – | –
CN(C)CCCSc1nc2c(Br)cc(Br)cc2[nH]1 | 7.69 | 20.4 nM | 7.99 | 10.2 nM | 11 nM | 20 nM | –
Clc1cc(Cl)c2nc(SCCN3CCCCC3)[nH]c2c1 | 7.26 | 55 nM | 7.14 | 72.4 nM | – | – | –
Brc1cc(Br)c2nc(SCCN3CCCCC3)[nH]c2c1 | 6.9 | 126 nM | 7.69 | 20.4 nM | – | – | –
Brc1cc(Br)c2nc(SCCN3CCOCC3)[nH]c2c1 | 7.23 | 58.9 nM | 7.23 | 58.9 nM | – | – | –
O=[N+]([O-])c1ccc(CCSc2nc3c(Cl)cc(Cl)cc3[nH]2)cc1 | 7.09 | 81.3 nM | 7.96 | 11 nM | 10 nM | – | –
O=[N+]([O-])c1ccc(CCSc2nc3c(Br)cc(Br)cc3[nH]2)cc1 | 7.43 | 37.2 nM | 8.48 | 3.31 nM | 3 nM | – | –
